Ten compounds from article PMC8124774, “Tuning Anti-Biofilm Activity of Manganese(II) Complexes: Linking Biological Effectiveness of Heteroaromatic Complexes of Alcohol, Aldehyde, Ketone, and Carboxylic Acid with Structural Effects and Redox Activity” (International Journal of Molecular Sciences, 2021) can be followed below.

Test [1] relates to Staphylococcus aureus ATCC 6538P. Description: broth microdilution MIC, S. aureus. It counts as cell-based. The protocol: (§1) The antimicrobial activities of the heteroaromatic ligands, Mn(II) complexes, and commercially available drug streptomycin were tested against standard bacterial strains: Staphylococcus aureus ATCC 6538P, Escherichia coli ATCC 8739, Pseudomonas aeruginosa PAO1 (biofilm model strain), and Pseudomonas aeruginosa LES B58 (clinical isolate). The P. aeruginosa PAO1 and LES B58 isolates were derived from the International Pseudomonas aeruginosa Reference Panel (http://bccm.belspo.be/about-us/bccm-lmg, accessed on 30 March 2021).
(§2) All bacteria species were cultivated in trypticase soy broth (TSB) medium (Biocorp, Warsaw, Poland) for 18 h at 37 °C with shaking (160 rpm). Overnight cultures of bacteria were diluted 1:100 into fresh TSB medium and then placed in each of the 96 wells of a microtiter transparent plate (Greiner, Monroe, NC, USA). The manganese(II) complexes—[Mn-pyOH-SO4]n, Mn-imCHO-NO3, Mn-imCHO-Cl, Mn-dipyCO-NO3—and the ligands—pyOH, pyCOOH—were prepared by dissolving compounds in distilled water. […] The starting stock solution was of 2-mM concentration.
(§3) The quantitative assay of the antibacterial activity was performed by the broth microdilution method, in 96-well microtiter plates, in order to establish the minimum inhibitory concentration (MIC). To this purpose, serial two-fold dilutions of the compounds ranging between 1 and 0.0625 mM were made. The details of the experiment were presented in our previous paper.

In test [2] the test system is Escherichia coli ATCC 8739. The test is described as follows: broth microdilution MIC, E. coli. It counts as cell-based. The procedure:
as §1, §2, §3

Test [3] has as its system Pseudomonas aeruginosa PAO1. The test is described as follows: broth microdilution MIC, P. aeruginosa PAO1. It counts as cell-based. The conditions noted are these: P. aeruginosa PAO1, planktonic cells. The protocol: as §1, §2, §3
In test [4] the test system is Pseudomonas aeruginosa LES B58. Description: broth microdilution MIC, P. aeruginosa LES B58. It counts as cell-based. The procedure: as §1, §2, §3
Test [5] has as its system P. aeruginosa PAO1 biofilm. Description: biofilm formation, crystal violet staining assay. In kind it is cell-based, Pseudomonas aeruginosa. The settings on record: for % Inhibit. Biofilm (0.25 mM) / % Inhibit. Biofilm (0.5 mM): P. aeruginosa PAO1, vs untreated control. The protocol:
as §2
To evaluate the effect of the compounds on P. aeruginosa biofilm formation, a crystal violet staining assay was used, following previously described protocols. The concentration of the investigated compounds was in the range 0.0625–1 mM. The amount of biofilm formed was determined by measuring the absorbance at λ = 595 nm with the Infinite M200 PRO microplate reader (Tecan, Männedorf, Switzerland). The measurement results, expressed in absorbance units, were converted into percentages to allow the comparison of numerical data obtained in different experiments.

The target of test [6] is T1, catalase from the bovine liver (Bos taurus, UniProt P00432).
T1 construct: The catalase from the bovine liver solution; purchased Sigma–Aldrich; host or cells: bovine liver
T1 sequence (P00432 2-527 limits assumed): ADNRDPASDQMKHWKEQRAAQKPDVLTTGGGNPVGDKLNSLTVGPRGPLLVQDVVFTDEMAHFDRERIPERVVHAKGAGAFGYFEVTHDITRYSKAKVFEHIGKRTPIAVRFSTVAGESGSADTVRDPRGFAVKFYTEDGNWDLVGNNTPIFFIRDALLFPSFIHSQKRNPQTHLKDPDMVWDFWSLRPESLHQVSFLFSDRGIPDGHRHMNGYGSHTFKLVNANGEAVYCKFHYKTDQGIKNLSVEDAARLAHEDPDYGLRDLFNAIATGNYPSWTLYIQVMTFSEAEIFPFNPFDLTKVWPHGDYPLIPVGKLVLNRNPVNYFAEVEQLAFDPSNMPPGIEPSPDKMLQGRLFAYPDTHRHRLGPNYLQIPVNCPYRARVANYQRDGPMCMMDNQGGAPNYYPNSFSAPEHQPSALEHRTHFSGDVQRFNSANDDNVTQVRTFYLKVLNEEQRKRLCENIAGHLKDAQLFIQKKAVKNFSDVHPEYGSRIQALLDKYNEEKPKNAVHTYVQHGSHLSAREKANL
The test is described as follows: catalase activity in the presence of the Mn(II) complexes (absorbance at 240 nm). The settings on record: 0.5 mM complex, vs catalase alone. In kind it is biochemical. The procedure: First, the complexes were incubated with the catalase in the presence of a phosphate buffer, and then hydrogen peroxide was added thereto. To study the effect of the manganese complexes on the activity of CAT, its performance, in the presence of similar concentrations of the Mn complexes (0.5 mM), was investigated. The percentage of absorbance reduction over time was recorded at 240 nm. The positive control was the catalase sample in the absence of the Mn(II) complex. Figure 12 illustrates the effect of the Mn(II) complexes on the catalase activity.
The effect of the manganese complexes on the activity of catalase (CAT) was determined using the spectrophotometric method. The decrease in absorbance due to hydrogen peroxide depletion was recorded at 240 nm by the V-780 UV-Vis/NIR spectrophotometer (Jasco, Easton, MD, USA). The tests were performed in a 50-mM potassium phosphate buffer (PBS) at 37 °C, pH = 7.0. The catalase from the bovine liver solution (Sigma–Aldrich, St. Louis, MO, USA, lyophilized powder, ≥10,000 units/mg protein) was prepared in the PBS buffer as an initial dilution of ~1000 units/mL at 37 °C. The hydrogen peroxide solution, approximately 0.03% (w/w), was prepared by dilution in the PBS buffer to achieve the absorbance close to 1 a.u, and the PBS was used as a blank. The manganese complexes were diluted in the PBS buffer to stock the concentration of 1 mM. The mixture of 500 µL of the hydrogen peroxide, 1 µL of the catalase (final 1U of catalase activity), and 500 µL of the manganese complexes, previously incubated in a water bath at 37 °C, was added to a quartz cuvette (10 mm, 1 mL), closed by a cover, and placed in the spectrophotometer. The absorbance readings were performed in 10-s intervals during the first minute of the incubation time at 37 °C. The results were presented as the dependence on the percentage of the absorbance reduction over time.

In test [7] the test system is primary human fibroblasts (VH10). Description: cytotoxicity, MTT test. In kind it is cell-based. The settings on record: VH10 cells, 24 h, 15–1000 µM. The protocol: Primary human fibroblasts (VH10) were cultured at 37 °C in a humidified 5% CO2 atmosphere in plastic dishes in Dulbecco’s modified eagle medium (DMEM) supplemented with 10% heat inactivated fetal calf serum, 2 mM of l-glutamine, and antibiotics (100 units/mL penicillin and 100 µg/mL streptomycin). Cytotoxic properties of manganese complexes were measured by EZcount^TM MTT cell assay kit (HiMedia Laboratories Pvt., Ltd., Mumbai, India) in accordance with the manufacturer’s instructions. Cells were seeded into a 96-well plate and incubated with manganese complexes in the concentration range of 15–1000 µM for 24 h at 37 °C in a humidified atmosphere of 5% CO2. After incubation, a solution of MTT (3-[4,5-dimethylthiazol-2-yl]-2, 5-diphenyl tetrazolium bromide) at a concentration (1 mg/mL) was added to each well. After incubation at 37 °C for 4 h, 100 µL of 0.04 M HCl in isopropanol was added to each well and mixed thoroughly to dissolve the dark blue crystals. The measurement of absorbance of the solution related to the number of live cells was conducted on a TECAN Spark Microplate Reader (TECAN, Männedorf, Switzerland) at 570 nm with a reference wavelength 600 nm. All samples were tested in three independent experiments. Results were normalized to the control.
Inhibitory concentrations (IC50) represent the concentrations of the tested samples required to inhibit 50% cell proliferation and were calculated from the mean values of data from wells.

Test [8] deals with pyoverdine secretion by P. aeruginosa PAO1. The test is described as follows: pyoverdine production (spectrofluorometric). In kind it is cell-based, Pseudomonas aeruginosa. The settings on record: 0.5 mM complexes, 24 h, vs negative control (TSB medium with inoculated bacteria).
Procedure: In the experiment the spectrofluorometric method was used, and data were expressed as the relative light units (RLU).
Pyoverdine determination was performer in TSB medium. Measurement of pyoverdine fluorescence was performed at the excitation wavelength λ = 398 nm and the emission wavelength λ = 455 nm as described previously [66]. Experiments were carried out in triplicate in 96-well black flat-bottomed microtiter plates (Greiner, Monroe, NC, USA) for 24 h in cell-free culture medium using an Infinite M200PRO (Tecan, Männedorf, Switzerland). The assay was performed with the series of Mn(II) complexes (0.5 mM) and streptomycin as a positive control, and TSB medium with inoculated bacteria as a negative control. The siderophore secretion assay was conducted as three independent repeats. The results obtained were not disturbed by the emission band characteristic of the Mn(II) complexes.
Where [9] appears, read: P. aeruginosa LES B58, planktonic cells.
Where [10] appears, read: Staphylococcus aureus, ATCC6538P, S. aureus, planktonic cells, read-out: MIC.
[11] abbreviates: Escherichia coli, ATCC8739, planktonic cells, read-out: MIC.
The mark [12] stands for this setting: Pseudomonas aeruginosa, read-out: MIC.
Where [13] appears, read: Pseudomonas aeruginosa, LESB58, P. aeruginosa LES B58, planktonic cells, read-out: MIC.

pIC50: −log10 of the molar value. Where “and” joins values, the source holds several entries; their conditions need not be identical. Identical values can stand only once. Like-named read-outs stand apart in the source and are kept apart here.

Regarding `O.O.O.O.O=[N+]([O-])[O-].O=[N+]([O-])[O-].[Mn+2]` [Mn(NO3)2·4H2O], the MIC in test [1] (S. aureus, planktonic cells) is > 1 mM and > 251 μg/ml; in test [2] (planktonic cells) it was > 1 mM and > 251 μg/ml; in test [3], > 1 mM and > 251 μg/ml; in test [4] (setting [9]), > 1 mM and > 251 μg/ml.
In the case of `O=C(c1ccccn1)c1ccccn1.O=C(c1ccccn1)c1ccccn1.O=[N+]([O-])[O-].O=[N+]([O-])[O-].[Mn+2]` [Mn-dipyCO-NO3], the MIC in test [1] (S. aureus, planktonic cells) was > 1 mM and > 547 μg/ml; in test [2] (planktonic cells), > 1 mM and > 547 μg/ml; in test [3], > 1 mM and > 547 μg/ml; in test [4] (setting [9]) it was > 1 mM and > 547 μg/ml. Also, the “% Inhibit. Biofilm (0.25 mM)” value in test [5] is 21%. In test [5], the “% Inhibit. Biofilm (0.5 mM)” value is given as 36%. Moreover, in test [6], the “Action on catalase activity” value was “attenuate the catalase activity”.
For `Cc1[nH]cnc1C=O.Cc1[nH]cnc1C=O.[Cl-].[Cl-].[Mn+2]` [Mn-imCHO-Cl], the MIC is > 1 mM and > 346 μg/ml in test [1] (S. aureus, planktonic cells); > 1 mM and > 346 μg/ml in test [2] (planktonic cells); > 1 mM and > 346 μg/ml in test [3]; > 1 mM and > 346 μg/ml in test [4] (setting [9]). Besides, in test [5], the “% Inhibit. Biofilm (0.25 mM)” value is recorded as 24%. Further, the “% Inhibit. Biofilm (0.5 mM)” value in test [5] is 29%. Moreover, in test [7], the pIC50 is less than 3.00. Moreover, the “Action on catalase activity” value in test [6] is “attenuate the catalase activity”.
In the case of `O.O.O.O.[Cl][Mn][Cl]` [MnCl2·4H2O], the MIC in test [1] (S. aureus, planktonic cells) was > 1 mM and > 198 μg/ml; in test [2] (planktonic cells), > 1 mM and > 198 μg/ml; in test [3] it was > 1 mM and > 198 μg/ml; in test [4] (setting [9]), > 1 mM and > 198 μg/ml.
For `O.O=S(=O)([O-])[O-].[Mn+2]` [MnSO4·H2O], the MIC in test [1] (S. aureus, planktonic cells) was > 1 mM and > 169 μg/ml; in test [2] (planktonic cells), > 1 mM and > 169 μg/ml; in test [3] it was > 1 mM and > 169 μg/ml; in test [4] (setting [9]), > 1 mM and > 169 μg/ml.
Consider `[H]/N=C(/N)N[C@H]1[C@H](O)[C@@H](O)[C@H](O[C@@H]2O[C@@H](C)[C@](O)(C=O)[C@H]2O[C@@H]2O[C@@H](CO)[C@H](O)[C@@H](O)[C@@H]2NC)[C@@H](N/C(N)=N\[H])[C@@H]1O` [Streptomycin, reference compound], for which the MIC in test [1] (Staphylococcus aureus, ATCC6538P) was 125 µM; in test [1] (setting [10]), 73 µg/mL; in test [2] (setting [11]) it was 62.5 µM and 36 µg/mL; in test [3] (setting [12]), 62.5 µM and 36 µg/mL; in test [4] (Pseudomonas aeruginosa, LESB58), 125 µM; in test [4] (setting [13]), 73 µg/mL. Besides, in test [8], the “decrease of pyoverdine production” value is listed as 96%.
Take `O=C(c1ccccn1)c1ccccn1` [dipyCO, dipyridin-2-ylmethanone]: the minimum inhibitory concentration (MIC) in test [1] (setting [10]) is > 1000 µM and > 184 µg/mL; in test [2] (setting [11]) it was > 1000 µM and > 184 µg/mL; in test [3] (setting [12]), > 1000 µM and > 184 µg/mL; in test [4] (setting [13]), > 1000 µM and > 184 µg/mL. Moreover, in test [5] (Pseudomonas aeruginosa, PAO1, 1 mM, P. aeruginosa biofilm), the inhibition at 1000 µM was 49%.
For the compound `Cc1nc[nH]c1C=O` [imCHO, 5(4)-carbaldehyde-4(5)-methylimidazole], the MIC was > 1 mM and > 110 μg/ml in test [1] (S. aureus, planktonic cells); > 1 mM and > 110 μg/ml in test [2] (planktonic cells); > 1 mM and > 110 μg/ml in test [3]; > 1 mM and > 110 μg/ml in test [4] (setting [9]).
For `O=C(O)c1cccnc1C(=O)O` [pyCOOH, pyridine-2,3-dicarboxylic anion], the MIC was > 1 mM and > 167 μg/ml in test [1] (S. aureus, planktonic cells); > 1 mM and > 167 μg/ml in test [2] (planktonic cells); > 1 mM and > 167 μg/ml in test [3]; > 1 mM and > 167 μg/ml in test [4] (setting [9]).
Turning to `OCc1ccccn1` [pyOH, 2-hydroxymethylpyridyne], the MIC is > 1 mM and > 109 μg/ml in test [1] (S. aureus, planktonic cells); > 1 mM and > 109 μg/ml in test [2] (planktonic cells); > 1 mM and > 109 μg/ml in test [3]; > 1 mM and > 109 μg/ml in test [4] (setting [9]).
